In the kinase profiling compilation of Christmann-Franck et al. (2016):

Key:
Test in all cases: radiometric filter-binding kinase assay
[1] = target: BRSK1 (human) (UniProt Q8TDC3)
[2] = target: BTK (human) (UniProt Q06187)
[3] = target: CAMKK2 (human) (UniProt Q96RR4)
[4] = target: CDK2 CCNA2 (human) (UniProt P20248+P24941)
[5] = target: CSK (human) (UniProt P41240)
[6] = target: CaMK1 (human) (UniProt Q14012)
[7] = target: DYRK2 (human) (UniProt Q92630)
[8] = target: EPHA2 (human) (UniProt P29317)
[9] = target: EPHA4 (human) (UniProt P54764)
[10] = target: EPHB2 (human) (UniProt P29323)
[11] = target: ERBB4 (human) (UniProt Q15303)
[12] = target: HIPK3 (human) (UniProt Q9H422)
Sequence of HIPK3 (human) (Q9H422 whole entry, looked up): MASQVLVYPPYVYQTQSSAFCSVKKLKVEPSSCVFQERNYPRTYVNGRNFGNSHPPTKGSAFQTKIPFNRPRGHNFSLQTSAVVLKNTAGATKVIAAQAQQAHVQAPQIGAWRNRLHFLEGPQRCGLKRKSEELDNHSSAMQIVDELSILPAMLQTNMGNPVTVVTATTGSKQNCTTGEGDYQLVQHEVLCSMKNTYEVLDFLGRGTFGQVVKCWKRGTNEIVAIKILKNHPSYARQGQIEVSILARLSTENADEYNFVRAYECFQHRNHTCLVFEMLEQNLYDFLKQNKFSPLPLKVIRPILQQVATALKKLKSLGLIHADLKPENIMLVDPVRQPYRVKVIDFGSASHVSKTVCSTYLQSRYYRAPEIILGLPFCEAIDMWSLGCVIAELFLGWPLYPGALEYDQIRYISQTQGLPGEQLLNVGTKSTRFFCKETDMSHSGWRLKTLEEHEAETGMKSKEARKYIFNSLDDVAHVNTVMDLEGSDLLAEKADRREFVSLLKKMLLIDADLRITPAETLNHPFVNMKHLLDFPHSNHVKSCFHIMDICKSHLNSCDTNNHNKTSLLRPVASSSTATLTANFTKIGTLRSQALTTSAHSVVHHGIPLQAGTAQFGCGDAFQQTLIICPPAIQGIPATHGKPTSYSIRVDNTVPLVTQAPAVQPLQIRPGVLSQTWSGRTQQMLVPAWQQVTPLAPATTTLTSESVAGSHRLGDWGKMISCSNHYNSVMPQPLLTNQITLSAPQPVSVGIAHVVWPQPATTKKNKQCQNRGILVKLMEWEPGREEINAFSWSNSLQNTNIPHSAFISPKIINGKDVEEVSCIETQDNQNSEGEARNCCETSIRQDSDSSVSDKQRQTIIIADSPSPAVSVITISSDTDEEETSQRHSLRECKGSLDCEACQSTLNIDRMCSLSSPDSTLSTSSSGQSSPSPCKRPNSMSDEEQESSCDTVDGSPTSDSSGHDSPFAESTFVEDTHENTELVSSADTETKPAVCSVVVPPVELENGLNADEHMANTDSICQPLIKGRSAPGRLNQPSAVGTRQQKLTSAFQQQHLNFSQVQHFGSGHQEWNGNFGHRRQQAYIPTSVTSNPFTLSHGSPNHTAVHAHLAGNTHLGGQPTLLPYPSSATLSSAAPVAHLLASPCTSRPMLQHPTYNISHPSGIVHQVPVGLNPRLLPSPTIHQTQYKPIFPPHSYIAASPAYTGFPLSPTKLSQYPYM

[13] = target: INSR (human) (UniProt P06213)
[14] = target: INSRR (human) (UniProt P14616)
[15] = target: JAK2 JH1 JH2 (human) (UniProt O60674)
[16] = system: LCK (mouse); conditions: accession and sequence are those of the human protein
[17] = target: MAP2K1 (human) (UniProt Q02750)
Sequence of MAP2K1 (human) (Q02750 whole entry, looked up): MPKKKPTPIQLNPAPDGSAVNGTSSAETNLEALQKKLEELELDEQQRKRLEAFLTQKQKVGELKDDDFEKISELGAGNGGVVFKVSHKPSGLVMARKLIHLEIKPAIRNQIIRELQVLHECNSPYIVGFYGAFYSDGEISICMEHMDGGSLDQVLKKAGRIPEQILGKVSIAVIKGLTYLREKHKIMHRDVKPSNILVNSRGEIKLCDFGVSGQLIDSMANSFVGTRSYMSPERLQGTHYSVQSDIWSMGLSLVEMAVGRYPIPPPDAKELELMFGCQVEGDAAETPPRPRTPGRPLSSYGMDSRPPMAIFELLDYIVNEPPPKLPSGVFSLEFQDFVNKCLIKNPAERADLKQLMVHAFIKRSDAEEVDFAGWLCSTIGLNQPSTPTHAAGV

[18] = target: MAPK15 (human) (UniProt Q8TD08); conditions: compound 100.0 µM
[19] = target: MAPKAPK2 (human) (UniProt P49137)
[20] = target: MARK1 (human) (UniProt Q9P0L2)
[21] = target: MARK2 (human) (UniProt Q7KZI7)
[22] = target: MINK1 (human) (UniProt Q8N4C8)
[23] = target: MKNK1 (human) (UniProt Q9BUB5)
[24] = target: MST4 (human) (UniProt Q9P289)
[25] = target: NEK2 (human) (UniProt P51955)
[26] = target: NUAK1 (human) (UniProt O60285)
[27] = target: PAK7 (human) (UniProt Q9P286)
[28] = target: PHKG1 (human) (UniProt Q16816)
[29] = system: PRKAA1 or PRKAA2 (rat); conditions: accession and sequence are those of the human protein
[30] = target: PRKACA (human) (UniProt P17612)
[31] = target: PRKCA (human) (UniProt P17252)
[32] = target: RIPK2 (human) (UniProt O43353)
[33] = target: RPS6KA5 KD1 KD2 (human) (UniProt O75582)
[34] = target: SRPK1 (human) (UniProt Q96SB4)
Sequence of SRPK1 (human) (Q96SB4 whole entry, looked up): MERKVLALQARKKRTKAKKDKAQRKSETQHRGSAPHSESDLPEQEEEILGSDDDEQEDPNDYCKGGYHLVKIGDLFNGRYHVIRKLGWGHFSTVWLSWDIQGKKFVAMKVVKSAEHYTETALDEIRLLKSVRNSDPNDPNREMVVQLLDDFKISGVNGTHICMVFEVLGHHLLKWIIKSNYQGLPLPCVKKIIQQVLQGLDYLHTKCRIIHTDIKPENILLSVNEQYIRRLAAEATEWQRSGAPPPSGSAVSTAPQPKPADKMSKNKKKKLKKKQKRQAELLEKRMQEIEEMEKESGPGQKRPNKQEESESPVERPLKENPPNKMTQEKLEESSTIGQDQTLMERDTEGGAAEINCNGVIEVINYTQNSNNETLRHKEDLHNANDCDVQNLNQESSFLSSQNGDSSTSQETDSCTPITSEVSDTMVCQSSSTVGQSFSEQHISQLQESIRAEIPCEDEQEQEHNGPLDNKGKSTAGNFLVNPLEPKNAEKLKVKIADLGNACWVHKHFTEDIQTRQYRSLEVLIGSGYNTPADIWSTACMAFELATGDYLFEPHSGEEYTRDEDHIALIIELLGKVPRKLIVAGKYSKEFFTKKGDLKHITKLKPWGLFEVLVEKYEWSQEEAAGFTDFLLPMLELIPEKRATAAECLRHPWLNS

[35] = target: NEK6 (human) (UniProt Q9HC98)

Sequence of CAMKK2 (human) (Q96RR4 whole entry, looked up): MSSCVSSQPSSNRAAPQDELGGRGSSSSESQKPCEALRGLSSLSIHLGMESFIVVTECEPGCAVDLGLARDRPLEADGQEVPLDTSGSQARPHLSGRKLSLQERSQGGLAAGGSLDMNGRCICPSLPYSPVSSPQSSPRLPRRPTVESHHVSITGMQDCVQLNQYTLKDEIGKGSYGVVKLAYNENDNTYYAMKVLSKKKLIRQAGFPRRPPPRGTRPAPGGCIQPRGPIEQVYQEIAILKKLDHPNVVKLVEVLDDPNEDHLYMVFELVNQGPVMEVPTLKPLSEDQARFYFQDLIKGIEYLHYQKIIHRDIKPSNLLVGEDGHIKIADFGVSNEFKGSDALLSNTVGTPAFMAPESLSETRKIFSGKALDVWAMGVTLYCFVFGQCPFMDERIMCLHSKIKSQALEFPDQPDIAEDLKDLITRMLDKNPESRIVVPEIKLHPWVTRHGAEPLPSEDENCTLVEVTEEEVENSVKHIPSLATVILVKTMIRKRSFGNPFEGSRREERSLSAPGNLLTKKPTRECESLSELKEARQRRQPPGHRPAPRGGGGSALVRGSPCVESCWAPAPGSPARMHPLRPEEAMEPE
Sequence of CSK (human) (P41240 whole entry, looked up): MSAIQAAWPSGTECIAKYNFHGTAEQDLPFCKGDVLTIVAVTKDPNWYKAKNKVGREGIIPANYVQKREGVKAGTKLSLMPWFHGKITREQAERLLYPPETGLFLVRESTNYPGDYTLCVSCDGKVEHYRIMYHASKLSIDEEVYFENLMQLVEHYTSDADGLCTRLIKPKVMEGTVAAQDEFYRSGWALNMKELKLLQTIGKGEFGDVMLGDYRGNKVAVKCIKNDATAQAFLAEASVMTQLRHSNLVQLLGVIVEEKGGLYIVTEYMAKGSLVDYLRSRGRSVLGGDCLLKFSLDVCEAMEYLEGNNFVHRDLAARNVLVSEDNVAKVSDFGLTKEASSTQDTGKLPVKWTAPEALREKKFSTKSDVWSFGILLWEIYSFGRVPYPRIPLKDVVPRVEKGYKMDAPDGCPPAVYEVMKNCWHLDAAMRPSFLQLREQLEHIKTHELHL
Sequence of BRSK1 (human) (Q8TDC3 whole entry, looked up): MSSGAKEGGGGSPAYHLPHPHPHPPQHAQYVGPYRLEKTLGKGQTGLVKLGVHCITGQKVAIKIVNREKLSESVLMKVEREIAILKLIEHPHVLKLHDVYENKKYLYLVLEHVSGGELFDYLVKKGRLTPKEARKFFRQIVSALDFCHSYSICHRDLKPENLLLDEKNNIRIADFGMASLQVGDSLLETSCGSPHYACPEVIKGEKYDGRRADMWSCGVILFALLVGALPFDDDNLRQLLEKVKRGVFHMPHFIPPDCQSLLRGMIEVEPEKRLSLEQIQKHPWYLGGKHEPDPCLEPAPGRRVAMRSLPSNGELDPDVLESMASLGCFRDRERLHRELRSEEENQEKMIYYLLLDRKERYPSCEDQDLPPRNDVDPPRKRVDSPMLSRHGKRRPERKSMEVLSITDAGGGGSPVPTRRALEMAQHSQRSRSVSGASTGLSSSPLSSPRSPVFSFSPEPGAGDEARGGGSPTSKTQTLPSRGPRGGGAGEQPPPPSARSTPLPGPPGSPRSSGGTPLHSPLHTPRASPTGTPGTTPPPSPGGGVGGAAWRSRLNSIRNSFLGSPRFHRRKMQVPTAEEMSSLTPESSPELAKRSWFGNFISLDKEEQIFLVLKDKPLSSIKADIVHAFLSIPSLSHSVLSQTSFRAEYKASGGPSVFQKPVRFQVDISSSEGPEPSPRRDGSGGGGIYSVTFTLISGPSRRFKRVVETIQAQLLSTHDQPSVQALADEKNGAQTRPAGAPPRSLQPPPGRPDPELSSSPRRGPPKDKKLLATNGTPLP

For `Cc1cc(N=Nc2cc(S(=O)(=O)O)c(C)cc2C)c(N)cc1O`, the residual activity ([1]; compound 100.0 µM) was 76%, the residual activity ([2]; compound 100.0 µM) was 102% and the residual activity ([3]; compound 100.0 µM) was 99%. The residual activity ([4]; compound 100.0 µM) was 94%, the residual activity ([5]; compound 100.0 µM) was 132% and the residual activity ([6]; compound 100.0 µM) was 45%. The residual activity ([7]; compound 100.0 µM) was 78%, the residual activity ([8]; compound 100.0 µM) was 89% and the residual activity ([9]; compound 100.0 µM) was 92%. For the same molecule, the residual activity ([10]; compound 100.0 µM) was 96%, the residual activity ([11]; compound 100.0 µM) was 99% and the residual activity ([12]; compound 100.0 µM) was 74%. It also gave a residual activity ([13]; compound 100.0 µM) of 141%, a residual activity ([14]; compound 100.0 µM) of 103% and a residual activity ([15]; compound 100.0 µM) of 71%. The residual activity ([16]; compound 100.0 µM) was 112%, the residual activity ([17]; compound 100.0 µM) was 103% and the residual activity [18] was 65%. It also gave a residual activity ([19]; compound 100.0 µM) of 107%, a residual activity ([20]; compound 100.0 µM) of 99% and a residual activity ([21]; compound 100.0 µM) of 98%. For the same molecule, the residual activity ([22]; compound 100.0 µM) was 62%, the residual activity ([23]; compound 100.0 µM) was 99% and the residual activity ([24]; compound 100.0 µM) was 67%. It also gave a residual activity ([25]; compound 100.0 µM) of 118%, a residual activity ([26]; compound 100.0 µM) of 44% and a residual activity ([27]; compound 100.0 µM) of 87%. It also gave a residual activity ([28]; compound 100.0 µM) of 86%, a residual activity ([29]; compound 100.0 µM) of 71% and a residual activity ([30]; compound 100.0 µM) of 90%. For the same molecule, the residual activity ([31]; compound 100.0 µM) was 81%, the residual activity ([32]; compound 100.0 µM) was 46% and the residual activity ([33]; compound 100.0 µM) was 84%. For the same molecule, the residual activity ([34]; compound 100.0 µM) was 59%.

Work on `NS(=O)(=O)OC[C@@H]1C[C@@H](n2ccc3c(N[C@H]4CCc5ccccc54)ncnc32)C[C@@H]1O` yielded a residual activity ([1]; compound 1.0 µM) of 89%, a residual activity ([2]; compound 10.0 µM) of 105% and a residual activity ([3]; compound 1.0 µM) of 96%. The residual activity ([3]; compound 10.0 µM) was 108%, the residual activity ([4]; compound 1.0 µM) was 84% and the residual activity ([4]; compound 10.0 µM) was 90%. It also gave a residual activity ([5]; compound 1.0 µM) of 78%, a residual activity ([6]; compound 1.0 µM) of 114% and a residual activity ([6]; compound 10.0 µM) of 110%. It also gave a residual activity ([7]; compound 1.0 µM) of 93%, a residual activity ([7]; compound 10.0 µM) of 92% and a residual activity ([8]; compound 10.0 µM) of 105%. For the same molecule, the residual activity ([9]; compound 10.0 µM) was 105%, the residual activity ([10]; compound 1.0 µM) was 107% and the residual activity ([10]; compound 10.0 µM) was 109%. For the same molecule, the residual activity ([11]; compound 1.0 µM) was 110%, the residual activity ([11]; compound 10.0 µM) was 116% and the residual activity ([12]; compound 1.0 µM) was 84%. For the same molecule, the residual activity ([12]; compound 10.0 µM) was 89%, the residual activity ([13]; compound 1.0 µM) was 89% and the residual activity ([13]; compound 10.0 µM) was 93%. For the same molecule, the residual activity ([14]; compound 1.0 µM) was 87%, the residual activity ([14]; compound 10.0 µM) was 83% and the residual activity ([15]; compound 1.0 µM) was 89%. For the same molecule, the residual activity ([15]; compound 10.0 µM) was 93%, the residual activity ([16]; compound 1.0 µM) was 98% and the residual activity ([16]; compound 10.0 µM) was 110%. It also gave a residual activity ([17]; compound 1.0 µM) of 95%, a residual activity ([17]; compound 10.0 µM) of 99% and a residual activity ([19]; compound 1.0 µM) of 88%. The residual activity ([19]; compound 10.0 µM) was 93%, the residual activity ([20]; compound 1.0 µM) was 100% and the residual activity ([20]; compound 10.0 µM) was 107%. The residual activity ([21]; compound 1.0 µM) was 90%, the residual activity ([21]; compound 10.0 µM) was 88% and the residual activity ([22]; compound 1.0 µM) was 93%. The residual activity ([22]; compound 10.0 µM) was 96%, the residual activity ([23]; compound 1.0 µM) was 104% and the residual activity ([23]; compound 10.0 µM) was 92%. The residual activity ([24]; compound 1.0 µM) was 83%, the residual activity ([24]; compound 10.0 µM) was 88% and the residual activity ([25]; compound 1.0 µM) was 109%. The residual activity ([25]; compound 10.0 µM) was 100%, the residual activity ([35]; compound 10.0 µM) was 102% and the residual activity ([26]; compound 1.0 µM) was 98%. The residual activity ([26]; compound 10.0 µM) was 96%, the residual activity ([27]; compound 10.0 µM) was 89% and the residual activity ([28]; compound 1.0 µM) was 109%. It also gave a residual activity ([28]; compound 10.0 µM) of 106%, a residual activity ([29]; compound 1.0 µM) of 96% and a residual activity ([29]; compound 10.0 µM) of 99%. The residual activity ([30]; compound 1.0 µM) was 73%, the residual activity ([30]; compound 10.0 µM) was 81% and the residual activity ([31]; compound 10.0 µM) was 88%. It also gave a residual activity ([32]; compound 1.0 µM) of 107%, a residual activity ([32]; compound 10.0 µM) of 121% and a residual activity ([33]; compound 1.0 µM) of 103%. For the same molecule, the residual activity ([33]; compound 10.0 µM) was 110%, the residual activity ([34]; compound 1.0 µM) was 92% and the residual activity ([34]; compound 10.0 µM) was 102%.

`Cc1nc(-c2ccc(OCC(C)C)c(C#N)c2)sc1C(=O)O` showed a residual activity ([1]; compound 1.0 µM) of 94%, a residual activity ([1]; compound 10.0 µM) of 91% and a residual activity ([2]; compound 1.0 µM) of 103%. For the same molecule, the residual activity ([2]; compound 10.0 µM) was 101%, the residual activity ([3]; compound 1.0 µM) was 92% and the residual activity ([3]; compound 10.0 µM) was 73%. The residual activity ([4]; compound 1.0 µM) was 106%, the residual activity ([4]; compound 10.0 µM) was 106% and the residual activity ([5]; compound 1.0 µM) was 148%. It also gave a residual activity ([5]; compound 10.0 µM) of 119%, a residual activity ([6]; compound 1.0 µM) of 98% and a residual activity ([6]; compound 10.0 µM) of 93%. It also gave a residual activity ([7]; compound 1.0 µM) of 95%, a residual activity ([7]; compound 10.0 µM) of 83% and a residual activity ([8]; compound 1.0 µM) of 104%. The residual activity ([8]; compound 10.0 µM) was 89%, the residual activity ([9]; compound 10.0 µM) was 107% and the residual activity ([10]; compound 1.0 µM) was 122%. For the same molecule, the residual activity ([10]; compound 10.0 µM) was 102%, the residual activity ([11]; compound 1.0 µM) was 102% and the residual activity ([11]; compound 10.0 µM) was 103%. It also gave a residual activity ([12]; compound 1.0 µM) of 108%, a residual activity ([12]; compound 10.0 µM) of 119% and a residual activity ([13]; compound 1.0 µM) of 102%. For the same molecule, the residual activity ([13]; compound 10.0 µM) was 96%, the residual activity ([14]; compound 1.0 µM) was 66% and the residual activity ([14]; compound 10.0 µM) was 68%. The residual activity ([15]; compound 10.0 µM) was 83%, the residual activity ([16]; compound 1.0 µM) was 110% and the residual activity ([16]; compound 10.0 µM) was 102%. The residual activity ([17]; compound 1.0 µM) was 85%, the residual activity ([19]; compound 10.0 µM) was 44% and the residual activity ([20]; compound 1.0 µM) was 96%. The residual activity ([20]; compound 10.0 µM) was 104%, the residual activity ([21]; compound 1.0 µM) was 60% and the residual activity ([21]; compound 10.0 µM) was 59%. For the same molecule, the residual activity ([22]; compound 10.0 µM) was 104%, the residual activity ([23]; compound 1.0 µM) was 106% and the residual activity ([23]; compound 10.0 µM) was 95%. For the same molecule, the residual activity ([24]; compound 1.0 µM) was 94%, the residual activity ([24]; compound 10.0 µM) was 90% and the residual activity ([25]; compound 1.0 µM) was 89%. The residual activity ([25]; compound 10.0 µM) was 98%, the residual activity ([35]; compound 1.0 µM) was 100% and the residual activity ([35]; compound 10.0 µM) was 99%. It also gave a residual activity ([26]; compound 1.0 µM) of 95%, a residual activity ([26]; compound 10.0 µM) of 73% and a residual activity ([27]; compound 1.0 µM) of 101%. It also gave a residual activity ([27]; compound 10.0 µM) of 88%, a residual activity ([28]; compound 1.0 µM) of 85% and a residual activity ([28]; compound 10.0 µM) of 83%. The residual activity ([29]; compound 1.0 µM) was 92%, the residual activity ([29]; compound 10.0 µM) was 83% and the residual activity ([30]; compound 1.0 µM) was 99%. For the same molecule, the residual activity ([30]; compound 10.0 µM) was 91%, the residual activity ([31]; compound 1.0 µM) was 94% and the residual activity ([31]; compound 10.0 µM) was 92%. It also gave a residual activity ([32]; compound 1.0 µM) of 97%, a residual activity ([32]; compound 10.0 µM) of 88% and a residual activity ([33]; compound 1.0 µM) of 94%. The residual activity ([33]; compound 10.0 µM) was 102%, the residual activity ([34]; compound 1.0 µM) was 99% and the residual activity ([34]; compound 10.0 µM) was 89%.
